Experimental data: US10273218B2, “BCL-3 inhibitors” (University College Cardiff Consultants Limited, priority 2014, dated 2019)

SMILES	melting point [°C]
CN1CCN(CCNC(=O)c2ccccc2NC(=O)c2ccc(F)cc2)CC1 [Compound 107, 2-(4-fluorobenzamido)-N-(2-(4-methylpiperazin-1-yl)ethyl)benzamide]	89 to 91
COc1cccc(C(=O)NCCN2CCOCC2)c1NC(=O)c1ccccc1F [Compound 145, 2-(2-fluorobenzamido)-3-methoxy-N-(2-morpholinoethyl)benzamide]	105 to 107
CN1CCN(CCCNC(=O)c2ccccc2NC(=O)c2cccc3ccccc23)CC1 [Compound 68, N-(2-((3-(4-methylpiperazin-1-yl)propyl)carbamoyl)phenyl)-1-naphthamide]	98 to 100
COc1cc(NC(=O)c2ccccc2F)c(C(=O)NCCN2CCN(C)CC2)c(OC)c1OC [Compound 60, 6-(2-fluorobenzamido)-2,3,4-trimethoxy-N-(2-(4-methylpiperazin-1-yl)ethyl)benzamide]	130
COc1cc(NC(=O)c2cccnc2)c(C(=O)NCCN2CCN(C)CC2)cc1OC [Compound 64, N-(4,5-dimethoxy-2-((2-(4-methylpiperazin-1-yl)ethyl)carbamoyl)phenyl)nicotinamide]	126
O=C(NCCN1CCOCC1)c1ccccc1NC(=O)c1ccccc1C(F)(F)F [Compound 9, N-(2-morpholinoethyl)-2-(2-(trifluoromethyl)benzamido) benzamide]	90 to 92
CN1CCN(CCCNC(=O)c2ccccc2NC(=O)c2ccc3ccccc3c2)CC1 [Compound 69, N-(2-((3-(4-methylpiperazin-1-yl)propyl)carbamoyl)phenyl)-2-naphthamide]	71 to 72
O=C(Nc1ccccc1C(=O)NCCc1ccccc1)c1ccc(Cl)cc1 [Compound 76, 2-(4-chlorobenzamido)-N-phenethylbenzamide]	104 to 106
COc1ccc(C(=O)Nc2ccncc2C(=O)NCCN2CCOCC2)cc1 [Compound 113, 4-(4-methoxybenzamido)-N-(2-morpholinoethyl)nicotinamide]	105 to 107
O=C(Nc1ncccc1C(=O)O)c1ccccc1F [Compound 105, 2-(2-fluorobenzamido)nicotinic acid]	> 90
CN1CCN(CCNC(=O)c2ccccc2NC(=O)c2ccc([N+](=O)[O-])cc2)CC1 [Compound 48, N-(2-(4-methylpiperazin-1-yl)ethyl)-2-(4-nitrobenzamido) benzamide]	122
O=C(Nc1cc(F)ccc1C(=O)NCCN1CCOCC1)c1ccccc1F [Compound 14, 4-fluoro-2-(2-fluorobenzamido)-N-(2-morpholinoethyl) benzamide]	104 to 106
COc1cccc(C(=O)NCCc2ccccc2)c1NC(=O)c1ccccc1F [Compound 84, 2-(2-fluorobenzamido)-3-methoxy-N-phenethylbenzamide]	130 to 132
COc1ccc(C(=O)Nc2ccccc2C(=O)NCCN2CCNCC2)cc1 [Compound 42, 2-(4-methoxybenzamido)-N-(2-(piperazin-1-yl)ethyl)benzamide]	91
COc1cc(C(=O)NCCCN2CCOCC2)c(NC(=O)c2cccnc2)c(OC)c1OC [Compound 132, N-(2,3,4-trimethoxy-6-((3-morpholinopropyl)carbamoyl)phenyl) nicotinamide]	120 to 122
COc1ccccc1C(=O)Nc1ccccc1C(=O)NCCN1CCN(C)CC1 [Compound 53, 2-methoxy-N-(2-((2-(4-methylpiperazin-1-yl)ethyl)carbamoyl)phenyl)benzamide]	111
COc1cccc(C(=O)NCCCc2ccccc2)c1NC(=O)c1cccc2ccccc12 [Compound 125, N-(2-methoxy-6-((3-phenylpropyl)carbamoyl)phenyl)-1-naphthamide]	150 to 152
COc1cccc(C(=O)Nc2c(OC)cccc2C(=O)NCCc2ccccc2)c1 [Compound 91, 3-methoxy-2-(3-methoxybenzamido)-N-phenethylbenzamide]	100 to 102
